Organism: Rattus norvegicus
Assay: DrugMatrix - Regimen: Daily Repeat
Type: toxicity, organism-based, Sprague-Dawley
Design: regimen Daily Repeat, gender Male, age 6-8 weeks
Conditions: in vivo, vehicle 100 % SALINE; for ABSOLUTE MONOCYTE / ABSOLUTE SEGMENTED NEUTROPHIL / BASOPHIL / EOSINOPHIL / ERYTHROCYTE COUNT / HEMATOCRIT / HEMOGLOBIN / LEUKOCYTE COUNT / LYMPHOCYTE / MEAN CORPUSCULAR HEMOGLOBIN / MEAN CORPUSCULAR HEMOGLOBIN CONCENTRATION / MEAN CORPUSCULAR VOLUME / MONOCYTE / NEUTROPHIL / PLATELET COUNT / ABSOLUTE BASOPHIL / ABSOLUTE EOSINOPHIL / ABSOLUTE LYMPHOCYTE: tissue Blood; for ALANINE AMINOTRANSFERASE / ALBUMIN / ALKALINE PHOSPHATASE / ASPARTATE AMINOTRANSFERASE / BLOOD UREA NITROGEN / CHLORIDE / CHOLESTEROL / CREATINE PHOSPHOKINASE / CREATININE / GLUCOSE / LACTATE DEHYDROGENASE / LIPASE / PHOSPHORUS / POTASSIUM / SODIUM / TOTAL BILIRUBIN / TOTAL PROTEIN / URIC ACID: tissue Plasma
[1] = ip, 160 mg/kg, 120 h, route intraperitoneal, dose level High, time 5 day
[2] = ip, 160 mg/kg, […], route intraperitoneal, dose level High, time 14 day
[3] = ip, 160 mg/kg, […], route intraperitoneal, dose level High, time 28 day
[4] = iv, 0 mg/kg, 72 h, dose level Control, time 3 day

NCC[C@H](O)C(=O)N[C@@H]1C[C@H](N)[C@@H](O[C@H]2O[C@H](CN)[C@@H](O)[C@H](O)[C@H]2O)[C@H](O)[C@H]1O[C@H]1O[C@H](CO)[C@@H](O)[C@H](N)[C@H]1O [AMIKACIN]
ABSOLUTE MONOCYTE [1]: 130 cells/µL
ABSOLUTE SEGMENTED NEUTROPHIL [1]: 830 cells/µL
BASOPHIL [1]: 0.52%
EOSINOPHIL [1]: 0.92%
ERYTHROCYTE COUNT [1]: 7.72 x10E6/uL
HEMATOCRIT [1]: 47.66%
HEMOGLOBIN [1]: 15.46 G/DL
LEUKOCYTE COUNT [1]: 8.36 x10E3/uL
LYMPHOCYTE [1]: 86.2%
MEAN CORPUSCULAR HEMOGLOBIN [1]: 20.02 pg
MEAN CORPUSCULAR HEMOGLOBIN CONCENTRATION [1]: 32.44 G/DL
MEAN CORPUSCULAR VOLUME [1]: 61.7 fL
MONOCYTE [1]: 1.62%
NEUTROPHIL [1]: 10.4%
PLATELET COUNT [1]: 1365.6 x10E3/uL
ALANINE AMINOTRANSFERASE [1]: 28.8 u/L
ALBUMIN [1]: 3.56 G/DL
ALKALINE PHOSPHATASE [1]: 209.4 u/L
ASPARTATE AMINOTRANSFERASE [1]: 80.6 u/L
BLOOD UREA NITROGEN [1]: 14.6 mg/dL
CHLORIDE [1]: 107.2 MEQ/L
CHOLESTEROL [1]: 62.4 mg/dL
CREATINE PHOSPHOKINASE [1]: 231.2 u/L
CREATININE [1]: 0.56 mg/dL
GLUCOSE [1]: 136.6 mg/dL
LACTATE DEHYDROGENASE [1]: 109.8 u/L
LIPASE [1]: 23.8 u/L
PHOSPHORUS [1]: 11.74 mg/dL
POTASSIUM [1]: 5.46 MEQ/L
SODIUM [1]: 147 MEQ/L
TOTAL BILIRUBIN [1]: 0.22 mg/dL
TOTAL PROTEIN [1]: 6.1 G/DL
URIC ACID [1]: 1.12 mg/dL
ABSOLUTE BASOPHIL [2]: 120 cells/µL
ABSOLUTE EOSINOPHIL [2]: 120 cells/µL
ABSOLUTE LYMPHOCYTE [2]: 10400 cells/µL
ABSOLUTE MONOCYTE [2]: 290 cells/µL
ABSOLUTE SEGMENTED NEUTROPHIL [2]: 1840 cells/µL
BASOPHIL [2]: 0.88%
EOSINOPHIL [2]: 0.88%
ERYTHROCYTE COUNT [2]: 7.68 x10E6/uL
HEMATOCRIT [2]: 45.32%
HEMOGLOBIN [2]: 14.88 G/DL
LEUKOCYTE COUNT [2]: 12.88 x10E3/uL
LYMPHOCYTE [2]: 80.34%
MEAN CORPUSCULAR HEMOGLOBIN [2]: 19.4 pg
MEAN CORPUSCULAR HEMOGLOBIN CONCENTRATION [2]: 32.88 G/DL
MEAN CORPUSCULAR VOLUME [2]: 59.02 fL
MONOCYTE [2]: 2.26%
NEUTROPHIL [2]: 15.14%
PLATELET COUNT [2]: 1513.4 x10E3/uL
ABSOLUTE BASOPHIL [3]: 97 cells/µL
ABSOLUTE EOSINOPHIL [3]: 87 cells/µL
ABSOLUTE LYMPHOCYTE [3]: 9100 cells/µL
ABSOLUTE MONOCYTE [3]: 180 cells/µL
ABSOLUTE SEGMENTED NEUTROPHIL [3]: 1340 cells/µL
BASOPHIL [3]: 0.88%
EOSINOPHIL [3]: 0.84%
ERYTHROCYTE COUNT [3]: 7.95 x10E6/uL
HEMATOCRIT [3]: 44.83%
HEMOGLOBIN [3]: 14.88 G/DL
LEUKOCYTE COUNT [3]: 10.86 x10E3/uL
LYMPHOCYTE [3]: 83.57%
MEAN CORPUSCULAR HEMOGLOBIN [3]: 18.72 pg
MEAN CORPUSCULAR HEMOGLOBIN CONCENTRATION [3]: 33.24 G/DL
MEAN CORPUSCULAR VOLUME [3]: 56.35 fL
MONOCYTE [3]: 1.64%
NEUTROPHIL [3]: 12.66%
PLATELET COUNT [3]: 1439.3 x10E3/uL
ALANINE AMINOTRANSFERASE [2]: 30.4 u/L
ALBUMIN [2]: 3.44 G/DL
ALKALINE PHOSPHATASE [2]: 190.6 u/L
ASPARTATE AMINOTRANSFERASE [2]: 79.6 u/L
BLOOD UREA NITROGEN [2]: 13 mg/dL
CHLORIDE [2]: 107.8 MEQ/L
CHOLESTEROL [2]: 70.8 mg/dL
CREATINE PHOSPHOKINASE [2]: 151.2 u/L
CREATININE [2]: 0.5 mg/dL
GLUCOSE [2]: 119.8 mg/dL
LACTATE DEHYDROGENASE [2]: 78.6 u/L
LIPASE [2]: 32 u/L
PHOSPHORUS [2]: 9.94 mg/dL
POTASSIUM [2]: 5.62 MEQ/L
SODIUM [2]: 150.6 MEQ/L
TOTAL BILIRUBIN [2]: 0.2 mg/dL
TOTAL PROTEIN [2]: 6.18 G/DL
URIC ACID [2]: 0.66 mg/dL
ALANINE AMINOTRANSFERASE [3]: 29.6 u/L
ALBUMIN [3]: 3.6 G/DL
ALKALINE PHOSPHATASE [3]: 128.89 u/L
ASPARTATE AMINOTRANSFERASE [3]: 84.7 u/L
BLOOD UREA NITROGEN [3]: 17.7 mg/dL
CHLORIDE [3]: 105.6 MEQ/L
CHOLESTEROL [3]: 62.1 mg/dL
CREATINE PHOSPHOKINASE [3]: 292.2 u/L
CREATININE [3]: 0.65 mg/dL
GLUCOSE [3]: 136.2 mg/dL
LACTATE DEHYDROGENASE [3]: 129.6 u/L
LIPASE [3]: 17.1 u/L
PHOSPHORUS [3]: 10.04 mg/dL
POTASSIUM [3]: 6.81 MEQ/L
SODIUM [3]: 152.5 MEQ/L
TOTAL BILIRUBIN [3]: 0.26 mg/dL
TOTAL PROTEIN [3]: 6.48 G/DL
URIC ACID [3]: 1.45 mg/dL
ABSOLUTE BASOPHIL [4]: 0 CELLS/uL
ABSOLUTE EOSINOPHIL [4]: 0 CELLS/uL
ABSOLUTE LYMPHOCYTE [4]: 7637.67 CELLS/uL
ABSOLUTE MONOCYTE [4]: 67.83 CELLS/uL
ABSOLUTE SEGMENTED NEUTROPHIL [4]: 661.17 CELLS/uL
BASOPHIL [4]: 0%

Source: ChEMBL document CHEMBL3885881, “DrugMatrix”
